Assay [1] has as its system Cdc25A. As to the kind of experiment: Cdc25A protein level and turnover by immunoblotting in UV-irradiated U-2-OS cells. Type of assay: cell-based, human. On the set-up: UV-induced degradation of the endogenous Cdc25A protein: dose or concentration left out as unconfirmed.
The subject of assay [2] is Cdc25A. As to the kind of experiment: Cdc25A phosphatase activity assay (activation of cyclin B1/Cdc2) on lysates of UV-irradiated U-2-OS cells. Also noted: Cdc25A-associated phosphatase activity after UV: dose or concentration left out as unconfirmed. It is filed as cell-based, human.
The subject of another assay is Chk1/Cdc25A. Briefly: Chk1/Cdc25A association (co-immunoprecipitation) in UV-irradiated U-2-OS cells transfected with HA-Cdc25A. Type of assay: cell-based, human. The note with it: caffeine 10 mM, 1 hour preincubation before UV (15 J/m^2), lysed 2 hours later. The protocol: (§1) FIG. 3. […] Asynchronous SAOS-2 cells were irradiated with UV (15 J/m^2) or left untreated. Cells were harvested 2 hours later and lysates were subjected to immunoblotting and phosphatase activity measurements. […] After an additional 2 hours, cells were lysed and analyzed for levels and complexes of HACdc25A and Chk1 as indicated. […] Chk1 was immunoprecipitated from lysates of U-2-OS cells treated as in (B), and its activity determined in an in vitro kinase assay in the presence or absence of the Chk1 inhibitor, UCN-01 (1 μM), using purified GST-Cdc25A as a substrate.
(§2) Immunochemical techniques: Antibodies used in this study: Mouse monoclonal antibodies against human Cdc25A (DCS-122, DCS-124) and F-6 (Santa Cruz), Cdc25B (DCS-162, DCS-164) and Cdc25C (DCS-193) full length proteins fused to GST were generated by means of established hybridoma technology as described. Rabbit polyclonal antobody against Cdc25C (SC-327) were purchased from Santa Cruz. Antiserum against cdk2 Tyr15 was obtained from Calbiochem.

Assay [3] concerns tyrosine phosphatases including Cdc25.
Excerpt: as §2

A further assay deals with Chk1 (Homo sapiens, UniProt O14757). As to conditions: UCN-01 1 μM added into the kinase reaction; Chk1 immunoprecipitated from U-2-OS lysates. The protocol: as §1, §2
The mark [4] stands for this setting: UCN-01 at the time of UV irradiation (15 J/m^2), U-2-OS.

“Also recorded” adds a separate entry of the source. Non-standard residues stand in square brackets, D forms with d. Residues, ends and D or L forms follow the SMILES beside them. Nle = CCCC[C@H](N)C(=O)O

Consider four compounds from US20020147145A1, “Materials and methods relating to the degradation of Cdc25A in response to DNA damage” (priority 2000, published 2002).

Sequence of Chk1 (O14757 whole entry): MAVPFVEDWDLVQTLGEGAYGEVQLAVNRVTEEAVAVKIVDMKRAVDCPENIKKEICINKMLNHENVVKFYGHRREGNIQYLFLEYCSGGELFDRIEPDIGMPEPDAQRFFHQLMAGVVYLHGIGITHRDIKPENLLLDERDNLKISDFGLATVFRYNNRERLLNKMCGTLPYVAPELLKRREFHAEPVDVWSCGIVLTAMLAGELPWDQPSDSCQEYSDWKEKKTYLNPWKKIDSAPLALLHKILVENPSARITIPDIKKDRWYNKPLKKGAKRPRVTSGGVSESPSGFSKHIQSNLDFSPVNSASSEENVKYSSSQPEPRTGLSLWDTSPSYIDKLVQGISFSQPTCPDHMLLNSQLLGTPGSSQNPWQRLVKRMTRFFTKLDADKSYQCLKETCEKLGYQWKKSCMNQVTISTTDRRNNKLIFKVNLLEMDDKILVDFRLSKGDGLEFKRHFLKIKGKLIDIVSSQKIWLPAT

On to `CCCC[C@@H](C=O)NC(=O)[C@H](CC(C)C)NC(=O)[C@H](CC(C)C)NC(C)=O` [LLnL] (Ac-Leu-Leu-[Nle]-aldehyde), for which, in the assay on Cdc25A [1] (LLnL 25 μg/ml added immediately after UV (15 J/m^2), U-2-OS (endogenous) and U-2-OS/B3C4 (ectopic Cdc25A), lysates 1 hour after UV), the “UV-induced reduction of Cdc25A protein level” value is on record as “entirely prevented”. Also, the “UV-induced reduction of Cdc25A phosphatase activity” value in the assay on Cdc25A [2] (LLnL 25 μg/ml added immediately after UV (15 J/m^2), endogenous and ectopic Cdc25A, 1 hour after UV) is “entirely prevented”.
In the case of `Cn1c(=O)c2c(ncn2C)n(C)c1=O` [caffeine], the “half-life of the Cdc25A protein after UV” value with Cdc25A [1] (caffeine prior to UV irradiation, compared to non-irradiated cells) was “restored”. Also, in the assay with Chk1/Cdc25A, the “UV-induced increase in Chk1/Cdc25A association” value is recorded as “quantitatively prevented”.
sodium vanadate: the “ability of mock-treated cell lysates to dephosphorylate and superactivate cyclin E/cdk2” value in assay [3] was “completely prevented”.
With `CN[C@@H]1C[C@H]2O[C@@](C)([C@@H]1OC)n1c3ccccc3c3c4c(c5c6ccccc6n2c5c31)C(=O)N[C@@H]4O` [UCN-01], the “UV-induced degradation of the endogenous Cdc25A protein” value with Cdc25A [1] (setting [4]) is “completely abolished; also recorded: prevented”. Besides, at Chk1, the “basal and UV-induced Chk1 kinase activities towards GST-Cdc25A” value is “completely inhibited”. In the assay on Cdc25A [2] (setting [4]), the “Cdc25A-associated phosphatase activity after UV” value is recorded as “allowed maintenance of high”.
